# Source: PubChem BioAssay (NCI)
#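 A five-concentration, 48-hour dose response in 96-well plates underlies each endpoint, interpolated linearly between surrounding concentrations. GI50 is the concentration that inhibits growth by half. TGI is the concentration that stops growth completely.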
# What was measured:
# Assay in all cases: NCI tumour cell line growth inhibition, 48 h
# RPMI-8226 leukemia = test system: RPMI-8226 leukemia
# TK-10 renal = test system: TK-10 renal
# NCI-H460 lung = test system: NCI-H460 lung
# NCI-H522 lung = test system: NCI-H522 lung
# A498 renal = test system: A498 renal
# SF-268 CNS = test system: SF-268 CNS
# HCT-116 colon = test system: HCT-116 colon
# K-562 leukemia = test system: K-562 leukemia
# M14 melanoma = test system: M14 melanoma
# SR leukemia = test system: SR leukemia
SMILES,TGI (RPMI-8226 leukemia) [µM],TGI (TK-10 renal) [µM],TGI (NCI-H460 lung) [µM],TGI (NCI-H522 lung) [µM],TGI (A498 renal) [µM],TGI (SF-268 CNS) [µM],TGI (HCT-116 colon) [µM],TGI (K-562 leukemia) [µM],TGI (M14 melanoma) [µM],TGI (SR leukemia) [µM],GI50 (RPMI-8226 leukemia) [µM],GI50 (TK-10 renal) [µM],GI50 (NCI-H460 lung) [µM],GI50 (NCI-H522 lung) [µM],GI50 (A498 renal) [µM],GI50 (SF-268 CNS) [µM],GI50 (HCT-116 colon) [µM],GI50 (K-562 leukemia) [µM],GI50 (M14 melanoma) [µM],GI50 (SR leukemia) [µM]
Oc1ccc(N=Nc2ccc(Cl)cc2)cc1,80.4,33.8,34.2,25,41,34.5,29.4,55.7,23.3,54.8,–,–,–,–,–,–,–,–,–,–
O=C(Oc1ccc(O)c2c(=O)n3c(cc12)[nH]c1ccccc13)c1ccccc1,51.4,40.8,> 100,41.2,42.4,> 100,23.5,64,37,82.2,11.8,18.8,81.7,6.21,20.9,61,11.3,24.4,17.9,25.9
O=C(O)C1CCc2ccc3ccccc3c2C1c1cccc2ccccc12 (centres undefined),> 100,> 100,38.2,60,67.2,91.7,28.9,> 100,38.9,49.9,–,–,–,–,–,–,–,–,–,–
COc1cc2c(cc1OCc1ccccc1)N=C[C@@H]1C/C(=C/C(=O)NCCCN3C(=O)c4cccc5cccc(c45)C3=O)CN1C2=O,> 100,3.43,7.15,–,4.07,5.01,> 100,> 100,6.92,> 100,0.432,0.466,0.603,0.228,1.45,0.314,0.538,0.424,2.17,> 100
CC1=CSC2=NC(c3ccc(Cl)c(Cl)c3)=CC(c3ccc(Cl)cc3)N12 (centres undefined),> 100,> 100,> 100,> 100,> 100,> 100,> 100,> 100,> 100,> 100,> 100,> 100,> 100,> 100,> 100,> 100,> 100,> 100,> 100,> 61.3
COc1cc2c(cc1C)NC(=O)/C2=C\c1cc(OC)c(OC)c(OC)c1,> 100,> 100,> 100,> 100,> 100,> 100,> 100,70.1,> 100,47.4,> 100,93.7,> 100,> 100,31.1,> 100,33,23.2,> 100,11.5
CN1CCN(CCSC2Cc3cc(Cl)ccc3Sc3ccccc32)CC1 (centres undefined),5.34,9.67,16.1,12.8,24.7,25.6,15.3,4.9,3.66,19.9,–,–,–,–,–,–,–,–,–,–
Cc1cc2nc3c(C(OC4OC(CO)C(O)C(O)C4O)C(O)CO)nn(-c4ccccc4)c3nc2cc1C (centres undefined),> 100,> 100,> 100,> 100,> 100,> 100,> 100,> 100,> 100,> 100,–,–,–,–,–,–,–,–,–,–
NC(=O)c1c[se]c(C2OC(CO)C(O)C2O)n1 (centres undefined),> 100,> 100,> 100,> 100,> 100,> 100,55,> 100,> 100,> 100,–,–,–,–,–,–,–,–,–,–
